pIC50: −log10 of the molar value.
Biological target: T1, HBCK (human brain-type creatine kinase, human BB-CK) (Homo sapiens, UniProt P12277)
T1 construct: gene CKB; homodimer BB; identified by LC-MS/MS
Experiment: residual activity after […] h incubation, pH-colorimetric assay (thymol blue, […] nm)
Assay type: biochemical

T1 sequence (P12277 2-381): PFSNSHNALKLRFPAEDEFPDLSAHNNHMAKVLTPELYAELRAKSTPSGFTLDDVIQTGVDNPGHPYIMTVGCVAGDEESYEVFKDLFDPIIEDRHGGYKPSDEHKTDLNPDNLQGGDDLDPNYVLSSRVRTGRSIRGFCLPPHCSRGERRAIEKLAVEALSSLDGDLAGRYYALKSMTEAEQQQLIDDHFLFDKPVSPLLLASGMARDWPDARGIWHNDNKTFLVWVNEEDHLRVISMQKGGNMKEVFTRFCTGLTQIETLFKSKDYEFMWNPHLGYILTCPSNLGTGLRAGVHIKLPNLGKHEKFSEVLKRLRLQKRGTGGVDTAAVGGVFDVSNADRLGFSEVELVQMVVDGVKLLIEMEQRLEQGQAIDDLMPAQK

C=CC(N)=O [acrylamide]
pIC50: ~1.30

Reference: article PMC2790104, “Effects of Acrylamide on the Activity and Structure of Human Brain Creatine Kinase” (International Journal of Molecular Sciences, 2009)
